The record followed here is US4593090A, “Novel nitrosourea compounds, method for preparing same, and pharmaceutical composition containing same” (Gogo Kimura, priority 1981, dated 1986).

What is called LD50 is the dose expected to kill half of the subjects tested.

Data set [1] has as its system Leukemia L1210. The data set can be described thus: Activity against Leukemia L1210, intraperitoneal, increase in life span of mice. The format is in vivo, female mice (BDF1 family). Conditions: for ED (maximum ILS) / ED30: Mus musculus, L1210, ip, ip once a day for 5 successive days; for ED (maximum ILS): daily dosage giving maximum increase of life span, read-out: O.D. (optimum dosage); for ED30: daily dosage increasing average survival days by 30%, read-out: ILS30; for Survivors after 60 days / Max. ILS % / Therapeutic ratio TR: ip; for Survivors after 60 days: 6-membered group; for Max. ILS %: 60-day observation, versus control; for Therapeutic ratio TR: O.D./ILS30. The procedure:
Tests were conducted in accordance with the method for measuring antitumor activity of National Cancer Center Tokyo (A, Hoshi et al, Farumashia 9 464 (1973)). Test compounds were each intraperitoneally (referred to as ip) or orally (referred to as op) administered once a day for 5 successive days to a 6-membered group of femal mice (BDF1 family, each weighing 20 to 23 g) 24 hours after 1×10^5 cells of Leukemia L1210 have been implantated into the abdominal cavities of the mice, and the effect was evaluated by comparing the survival days of treated groups with those of an untreated group of mice (control group) in 60-day observation. An increase percentage of life span (ILS%) was calculated from said average survival days compared with those of the control group. Further, therapeutic ratio (O.D./ILD30, referred to as T.R.) of each tested compound was calculated from the daily dosage of the compound necessary to increase said average survival days by 30% as compared with the control group (this dosage is referred to as ILS 30) and the daily dosage giving a maximum increase of life span to mice implantated with L1210 cells, namely an optimum dosage (referred to as O.D.). The results of five successive days intraperitoneal administrations of test compounds were shown in Tables I to III, and those of five successive oral administrations in Table IV.

Data set [2] is described as follows: Acute toxicity (LD50, Behrens-Karber method). The format is in vivo, ICR mice. The note with it: mouse, in vivo, ip, mortality during 30 days. Here is the method:
Test compounds, dissolved or suspended in 0.5% aqueous CMC, were each intraperitoneally administered to ICR mice in a dose of 0.1 ml per 10 g body weight. LD50 (mg/kg) value of each test compound was calculated from the mortality of mice during 30 days by the Behrens-Karber method.

Turning to `CC(C)CO[C@H]1O[C@H](CN(Cc2ccccc2)C(=O)N(CCCl)N=O)[C@@H](O)[C@H](O)[C@H]1O` [Compound 22, 3-benzyl-3-(isobutyl α-D-glucopyranose-6-yl)-1-(2-chloroethyl)-1-nitrosourea], in data set [1], the ED (maximum ILS) was 170 mg/kg, the ED30 came out at 4.45 mg/kg, the “Survivors after 60 days” value is listed as 3/6 and the “Max. ILS %” value is reported as > 350%. Moreover, the “Therapeutic ratio TR” value in data set [1] amounted to 38.2. In addition, the LD50 at 720 h in data set [2] was 510 mg/kg.

Regarding `CCC(C)OC1OC(CO)C(O)C(N(CC(C)C)C(=O)N(CCCl)N=O)C1O` [Compound 84, 3-isobutyl-3-(sec-butyl α-D-glucopyranose-3-yl)-1-(2-chloroethyl)-1-nitrosourea], in data set [1], the ED (maximum ILS) came to 220 mg/kg, the ED30 worked out at 5.8 mg/kg, the “Survivors after 60 days” value is 3/6 and the “Max. ILS %” value is on record as > 355%. Further, in data set [1], the “Therapeutic ratio TR” value came to 37.9. Moreover, the LD50 at 720 h in data set [2] turned out to be 695 mg/kg.

Consider `CCC(C)O[C@H]1O[C@H](CO)[C@@H](O)[C@H](O)[C@H]1N(CC(C)C)C(=O)N(CCCl)N=O` (stereo partly drawn) [Compound 59, 3-isobutyl-3-(sec-butyl α-D-glucopyranose-2-yl)-1-(2-chloroethyl)-1-nitrosourea], for which, in data set [1], the ED (maximum ILS) was found to be 200 mg/kg, the ED30 came out at 5.8 mg/kg, the “Survivors after 60 days” value is on record as 3/6 and the “Max. ILS %” value is given as > 348%. In data set [1], the “Therapeutic ratio TR” value stood at 34.5. Further, the LD50 at 720 h in data set [2] was determined as 605 mg/kg.

As to `CC(C)CO[C@H]1O[C@H](CN(CC(C)C)C(=O)N(CCCl)N=O)[C@H](O)[C@H](O)[C@H]1O` [Compound 107, 3-isobutyl-3-(isobutyl α-D-galactopyranose-6-yl)-1-(2-chloroethyl)-1-nitrosourea], in data set [1], the ED (maximum ILS) was 200 mg/kg, the ED30 is 5.87 mg/kg, the “Survivors after 60 days” value is 3/6 and the “Max. ILS %” value is > 360%. Further, in data set [1], the “Therapeutic ratio TR” value came out at 34.1. In data set [2], this compound came in with an LD50 at 720 h of 650 mg/kg.

Consider `CC(C)CN(C(=O)N(CCCl)N=O)[C@@H]1[C@@H](O)[C@@H](OC2CCCCC2)OC[C@H]1O` [Compound 150, 3-isobutyl-3-(cyclohexyl α-D-xylopyranose-3-yl)-1-(2-chloroethyl)-1-nitrosourea], for which, in data set [1], the ED (maximum ILS) was found to be 150 mg/kg, the ED30 was determined as 3.12 mg/kg, the “Survivors after 60 days” value is 4/6 and the “Max. ILS %” value was > 420%. Also, the “Therapeutic ratio TR” value in data set [1] is 48.1. This compound gave an LD50 at 720 h in data set [2] of 505 mg/kg.

Take `CC(C)CO[C@H]1O[C@H](CO)[C@H](N(CC(C)C)C(=O)N(CCCl)N=O)[C@H](O)[C@H]1O` [Compound 129, 3-isobutyl-3-(isobutyl α-D-garactopyranose-4-yl)-1-(2-chloroethyl)-1-nitrosourea]: in data set [1], the ED (maximum ILS) worked out at 200 mg/kg, the ED30 was 5.21 mg/kg, the “Survivors after 60 days” value is 3/6 and the “Max. ILS %” value is > 350%. Also, the “Therapeutic ratio TR” value in data set [1] stood at 38.4. Further, in data set [2], the median lethal dose (LD50) at 720 h turned out to be 600 mg/kg.

Consider `CCCCO[C@H]1O[C@H](CO)[C@H](O)[C@H](O)[C@H]1N(CCC)C(=O)N(CCCl)N=O` [Compound 119, 3-n-propyl-3-(n-butyl α-D-galactopyranose-2-yl)-1-(2-chloroethyl)-1-nitrosourea], for which, in data set [1], the ED (maximum ILS) stood at 200 mg/kg, the ED30 amounted to 5.95 mg/kg, the “Survivors after 60 days” value was 3/6 and the “Max. ILS %” value is > 360%. Further, the “Therapeutic ratio TR” value in data set [1] was 33.6. In addition, in data set [2], the LD50 at 720 h worked out at 600 mg/kg.

In the case of `C=C(C)CN(C(=O)N(CCCl)N=O)[C@H]1[C@@H](OCCCC)O[C@H](CO)[C@@H](O)[C@@H]1O` [Compound 56, 3-(2-methyl-2-propenyl)-3-(n-butyl α-D-glucopyranose-2-yl)-1-(2-chloroethyl)-1-nitrosourea], in data set [1], the ED (maximum ILS) was 170 mg/kg, the ED30 was found to be 5.38 mg/kg, the “Survivors after 60 days” value is 3/6 and the “Max. ILS %” value is recorded as > 360%. Also, the “Therapeutic ratio TR” value in data set [1] turned out to be 31.6. This compound returned an LD50 at 720 h in data set [2] of 460 mg/kg.

As to `CC(C)CO[C@H]1O[C@H](CN(CC(C)C)C(=O)N(CCCl)N=O)[C@@H](O)[C@H](O)[C@H]1O` [Compound 14, 3-isobutyl-3-(isobutyl α-D-glucopyranose-6-yl)-1-(2-chloroethyl)-1-nitrosourea], in data set [1], the ED (maximum ILS) turned out to be 170 mg/kg, the ED30 came out at 3.32 mg/kg, the “Survivors after 60 days” value is 6/6 and the “Max. ILS %” value was > 700%. Also, the “Therapeutic ratio TR” value in data set [1] came out at 51.2. In data set [2], this compound showed an LD50 at 720 h of 510 mg/kg.

For `CCC(C)O[C@H]1O[C@H](CN(CC(C)C)C(=O)N(CCCl)N=O)[C@@H](O)[C@H](O)[C@H]1O` (stereo partly drawn) [Compound 17, 3-isobutyl-3-(sec-butyl α-D-glucopyranose-6-yl)-1-(2-chloroethyl)-1-nitrosourea], in data set [1], the ED (maximum ILS) is 170 mg/kg, the ED30 turned out to be 3.55 mg/kg, the “Survivors after 60 days” value is on record as 6/6 and the “Max. ILS %” value is recorded as > 700%. For the same compound, the “Therapeutic ratio TR” value in data set [1] was found to be 47.9. Moreover, the median lethal dose (LD50) at 720 h in data set [2] worked out at 510 mg/kg.

As for `CCCN(C(=O)N(CCCl)N=O)[C@@H]1[C@@H](O)[C@@H](OC2CCCCC2)OC[C@H]1O` [Compound 147, 3-n-propyl-3-(cyclohexyl α-D-xylopyranose-3-yl)-1-(2-chloroethyl)-1-nitrosourea], in data set [1], the ED (maximum ILS) was determined as 150 mg/kg, the ED30 stood at 3.91 mg/kg, the “Survivors after 60 days” value was 3/6 and the “Max. ILS %” value is on record as > 350%. Besides, the “Therapeutic ratio TR” value in data set [1] was 38.4. For the same compound, the 50% lethal dose (LD50) at 720 h in data set [2] came to 430 mg/kg.

As for `CC(C)CN(C[C@H]1O[C@H](OCc2ccccc2)[C@@H](O)[C@H](O)[C@@H]1O)C(=O)N(CCCl)N=O` [Compound 139, 3-isobutyl-3-(benzyl α-D-altropyranose-6-yl)-1-(2-chloroethyl)-1-nitrosourea], in data set [1], the ED (maximum ILS) came to 130 mg/kg, the ED30 worked out at 4.58 mg/kg, the “Survivors after 60 days” value is recorded as 3/6 and the “Max. ILS %” value is > 340%. In data set [1], the “Therapeutic ratio TR” value came to 28.4. This compound came in with an LD50 at 720 h in data set [2] of 420 mg/kg.

Turning to `O=NN(CCCl)C(=O)N(CCC1CCCC1)C1C(OC2CCCCC2)OC(CO)C(O)C1O` [Compound 67, 3-(2-cyclopentylethyl)-3-(cyclohexyl α-D-glucopyranose-2-yl)-1-(2-chloroethyl)-1-nitrosourea], in data set [1], the ED (maximum ILS) worked out at 200 mg/kg, the ED30 is 7.5 mg/kg, the “Survivors after 60 days” value is listed as 3/6 and the “Max. ILS %” value is on record as > 355%. Besides, the “Therapeutic ratio TR” value in data set [1] turned out to be 28.6. In data set [2], this compound displayed an LD50 at 720 h of 650 mg/kg.

In the case of `COC(C)CO[C@H]1O[C@H](CN(CC2CC2)C(=O)N(CCCl)N=O)[C@H](O)[C@H](O)[C@H]1O` (stereo partly drawn) [Compound 116, 3-cyclopropylmethyl-3-(2-methoxy-n-propyl α-D-galactopyranose-6-yl)-1-(2-chloroethyl)-1-nitrosourea], in data set [1], the ED (maximum ILS) is 150 mg/kg, the ED30 came to 2.51 mg/kg, the “Survivors after 60 days” value was 6/6 and the “Max. ILS %” value was > 700%. For the same compound, in data set [1], the “Therapeutic ratio TR” value is on record as 59.8. In data set [2], this compound had an LD50 at 720 h of 450 mg/kg.

As for `COCC(C)O[C@H]1O[C@H](CN(CC(C)C)C(=O)N(CCCl)N=O)[C@@H](O)[C@H](O)[C@H]1O` (stereo partly drawn) [Compound 33, 3-isobutyl-3-(1-methyl-2-methoxyethyl α-D-glucopyranose-6-yl)-1-(2-chloroethyl)-1-nitrosourea], in data set [1], the ED (maximum ILS) worked out at 170 mg/kg, the ED30 turned out to be 2.62 mg/kg, the “Survivors after 60 days” value is on record as 6/6 and the “Max. ILS %” value is recorded as > 700%. In addition, the “Therapeutic ratio TR” value in data set [1] came out at 64.9. Further, in data set [2], the LD50 at 720 h is 560 mg/kg.

For `CCCCOC1OC(CO)C(O)C(N(C(=O)N(CCCl)N=O)C(C)CC)C1O` [Compound 81, 3-sec-butyl-3-(n-butyl β-D-glucopyranose-3-yl)-1-(2-chloroethyl)-1-nitrosourea], in data set [1], the ED (maximum ILS) amounted to 200 mg/kg, the ED30 was determined as 5.8 mg/kg, the “Survivors after 60 days” value is 3/6 and the “Max. ILS %” value is recorded as > 360%. Moreover, the “Therapeutic ratio TR” value in data set [1] amounted to 34.5. This compound also showed a median lethal dose (LD50) at 720 h in data set [2] of 580 mg/kg.

For the compound `CCCCCCCCCCN(C[C@H]1O[C@H](OCCCC)[C@H](O)[C@@H](O)[C@@H]1O)C(=O)N(CCCl)N=O` [Compound 8, 3-n-decyl-3-(n-butyl α-D-glucopyranose-6-yl)-1-(2-chloroethyl)-1-nitrosourea], in data set [1], the ED (maximum ILS) came to 100 mg/kg, the ED30 was determined as 4.46 mg/kg, the “Survivors after 60 days” value is reported as 3/6 and the “Max. ILS %” value was > 450%. The “Therapeutic ratio TR” value in data set [1] was 22.4. In addition, in data set [2], the LD50 at 720 h was 315 mg/kg.
